Experimental data taken from paper PMC8316815, “Overexpression of ABCG2 Confers Resistance to MLN7243, a Ubiquitin-Activating Enzyme (UAE) Inhibitor” (Frontiers in Cell and Developmental Biology, 2021).

Tests used:
[1] = molecular target: T1, ABCG2 (Homo sapiens, UniProt Q9UNQ0); assay: ABCG2 ATPase stimulation in membrane vesicles; supported by HPLC accumulation in HEK293/ABCG2-WT cells; assay type: biochemical; set-up: ABCG2 membrane vesicles (PREDEASY ATPase Kit)
T1 sequence (Q9UNQ0 1-655): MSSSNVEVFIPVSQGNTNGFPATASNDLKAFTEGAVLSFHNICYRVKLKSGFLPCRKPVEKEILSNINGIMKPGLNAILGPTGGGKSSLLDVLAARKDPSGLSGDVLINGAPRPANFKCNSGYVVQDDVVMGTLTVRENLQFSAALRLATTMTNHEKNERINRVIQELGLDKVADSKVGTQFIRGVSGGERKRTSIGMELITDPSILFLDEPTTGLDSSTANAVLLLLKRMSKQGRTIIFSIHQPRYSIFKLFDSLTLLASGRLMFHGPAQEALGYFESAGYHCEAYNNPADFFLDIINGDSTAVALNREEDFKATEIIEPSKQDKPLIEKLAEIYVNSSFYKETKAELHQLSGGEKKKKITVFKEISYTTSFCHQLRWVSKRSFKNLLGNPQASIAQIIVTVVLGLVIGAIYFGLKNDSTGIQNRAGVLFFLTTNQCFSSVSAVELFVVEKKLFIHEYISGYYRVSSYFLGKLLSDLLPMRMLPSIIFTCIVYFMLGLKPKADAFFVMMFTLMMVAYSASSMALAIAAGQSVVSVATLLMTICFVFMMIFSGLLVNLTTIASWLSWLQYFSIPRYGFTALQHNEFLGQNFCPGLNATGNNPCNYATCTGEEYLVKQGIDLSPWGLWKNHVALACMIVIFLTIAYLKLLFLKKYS

[2] = molecular target: T1, ABCG2; assay: [3H]-mitoxantrone accumulation in NCI-H460 and NCI-H460/TPT10 cells, restored by Ko143; assay type: cell-based; set-up: ABCG2-overexpressing NCI-H460/TPT10 cells

SMILES | EC50 [1] [nM] | [3H]-mitoxantrone accumulation in NCI-H460 and NCI-H460/TPT10 cells, restored by [2]
NS(=O)(=O)OC[C@H]1C[C@@H](Nc2ccnc3cc(-c4cccc(SC(F)(F)F)c4)nn23)[C@H](O)[C@@H]1O [MLN7243] | 1780 | –
O=C1c2c(O)ccc(O)c2C(=O)c2c(NCCNCCO)ccc(NCCNCCO)c21 [mitoxantrone] | – | suggesting a large portion of mitoxantrone was pumped out from the cells by ABCG2 transporter
